Here are results for 3 molecules from patent US20040158036A1, “Neuritogenic compound and uses thereof” (priority 2004, published 2004).

“Also recorded” adds a separate entry of the source. Where two headings read alike, the source gives them in different places. Ends that are not written are not given here.

The test system of test [1] is explanted DRG. As to the kind of experiment: Neurite outgrowth from explanted DRG cultures (Example 3). Format: cell-based, C57/B16 mice. Particulars: for neurite outgrowth relative to non-treated cultures / INGAP peptide-stimulated neurite outgrowth after preincubation with anti-NGF antibody: INGAP peptide 1000 ng/mL; for neurite outgrowth relative to non-treated cultures: NGF 50 ng/mL, 17-β-estradiol 10 nM, 4 and 7 days; for overall length and density of neurite outgrowth vs non-treated DRG: 4 days in culture; for neurite outgrowth in combination with 17-β-estradiol vs either drug alone: INGAP peptide 1000 ng/mL + 17-β-estradiol 10 nM; for neurite outgrowth in combination with NGF vs INGAP peptide alone: INGAP peptide 1000 ng/mL + NGF 50 ng/mL; for INGAP peptide-stimulated neurite outgrowth after preincubation with anti-NGF antibody: cultures pre-incubated with anti-NGF antibody. On the procedure:
(§1) DRG (L3, L4, L5) were dissected from wild-type C57/B16 mice <, and DRG explants were cultured in […] of Matrigel at 37° C. (5% CO2) for 24 h in phenol-red free RPMI 1640 media-free supplemented with 1% penicillin/streptomycin. Neurite outgrowth was followed for 7 days and was visualized with an OLYMPUS™ BX51 system microscope equipped with a Dage-MTI CCD300-RC camera coupled to a Powermate™ 8100 Pentium™III computer (NEC Corp.) with 128 MB RAM. Bright-field microscope images were stored in uncompressed tagged image file format (TIFF) at a resolution of 600 d.p.i. and analyzed using MCID-M5+5.1 image analysis software (Imaging Research Inc.) and SYSTAT 9 statistical software (SPSS Inc.).
(§2) In all experiments, statistical significance was determined using one-way ANOVA and post-hoc Dunnett's test. The experimental group size was n=4-5, and differences were considered significant where P<0.05.

In test [2] the test system is cells associated with the ductal epithelium. Particulars: normal, adult mouse; cited from earlier work.
The test system is the same in test [3]. Particulars: normal, adult hamster; cited from earlier work.
The next test concerns DRG explants. Kind of test: [3H]thymidine incorporation in DRG explants (Example 3). Format: cell-based, C57/B16 mice. Particulars: 4 days in culture; for [3H] thymidine incorporation relative to non-treated controls: 100 ng/mL. As to the method: as §1
For [3H]thymidine incorporation assays, serum-starved DRG ex-plants cultured in Matrigel were exposed to Ingap (100-1000 ng/mL) for 48 h. 1 p Ci/ml of [3H]thymidine was added to each DRG and kept for an additional 48 h, after which time the DRG were washed four times with ice-cold trichloroacetic acid (10%). Ganglia were lysed on ice in 100pL of tissue solubilizer (NCS-II, Amersham). Lysates were transferred to individual 4 mL scintillation counting vials, and 4 mL of liquid scintillation counting cocktail (Fischer SX25-5 ScintiSafe Plus 50%) was added to each lysate. Counting was performed on a Wallac 1410 liquid scintillation counter.
as §2
Background: Incorporation of labelled thymidine or its analogues reports DNA synthesis.

Test [4] relates to dorsal route ganglia (DRG) explant cultures. As to the kind of experiment: Neurite outgrowth in DRG explant cultures (Example 1). It counts as cell-based, male C57BL/6 mice. Particulars: DRG explants. On the procedure:
Using male C57BL/6 mice, dorsal route ganglia (DRG) explant cultures were established to examine the effect of the INGAP peptide of the present invention on neurite outgrowth (FIG. 1). DRG (L3, L4) were dissected from male C57BL/6 mice, and DRG explants were cultured in 14 uL of Matrigel in 2 ml of RPMI 1640 media+1% antibiotic.

A further test deals with DRG explant cultures. Kind of test: MTT assay of DRG cell viability (Example 2). It counts as cell-based, Balb/C mice. As to the method: Using DRG explant cultures, we examined the effects of the INGAP peptide of the present invention, as well as other agents, on DRG cell viability using the MTT assay (FIG. 2). DRG (L3, L4) were dissected from Balb/C mice, and DRG explants were cultured in 14 uL of Matrigel in 2 ml of RPMI 1640 media+1% antibiotic. After 48 hours, INGAP, β-estradiol, and/or FK506 were added to the explant cultures as indicated. MTT assay was performed 7 days after the addition of drugs. Data were analyzed using one-way ANOVA with post-hoc Tuckey” test. Differences were consider significant where p<0.05. (n=3-4 per treatment group).
(In general: Formazan colour is commonly taken as a measure of viable cells.)

Test [5] has as its system explanted DRG. Kind of test: MTT assay, mitochondrial activity in explanted DRG (Example 3). It counts as cell-based, C57/B16 mice. On the procedure:
as §1
For cell viability assays, MTT was dissolved in phosphate buffered saline (1.9 mM NaH2PO4, 8.1 mM Na2HPO4, 154 mM NaCl) and applied to DRG explant cultures at a concentration of 1.2 mM for 2 h at (37° C., 5% CO2). Media were then aspirated, and each DRG explant was incubated in […] of DMSO for 1 h. […] of DMSO from each explant was transferred to a 96-well plate and absorbance at 595 nm was read on a Bio-Rad Benchmark plate reader.
as §2

Consider `C[C@]12CC[C@@H]3c4ccc(O)cc4CC[C@H]3[C@@H]1CC[C@@H]2O` [17-β-estradiol, reference compound], for which, in the test on explanted DRG [1], the “neurite outgrowth relative to non-treated cultures” value is “strong neurite outgrowth”.
For the molecule “GLHDPSHGTLPNGSG [15-amino-acid fragment (amino acids 104-118) of Islet Neogenesis Associated Protein]”, the “islet-cell neogenesis, new islet formation” value in test [2] and in test [3] was “potent inducer of islet-cell neogenesis” throughout. In addition, the “[3H] thymidine incorporation relative to non-treated controls” value in the test on DRG explants is recorded as “no significant effects”; in the test on DRG explants (listed as INGAP) it was “no significant effect”. Moreover, the “increase in [3H] thymidine incorporation relative to non-treated controls” value in the test on DRG explants (500 ng/mL) was found to be 3 fold. For the same molecule, the “neurite outgrowth vs non-treated DRG” value with explanted DRG [1] (100 ng/mL, any time point examined) was “No effects”; with explanted DRG [1] (100 ng/mL, any time point examined, listed as INGAP), “did not have a significant effect”; with explanted DRG [1] (1000 ng/mL, 7 days in culture), “continued to significantly enhance neurite outgrowth”; with explanted DRG [1] (24 h, regardless of the drug concentration), “no significant differences”. Also, the “overall length and density of neurite outgrowth vs non-treated DRG” value is listed as “significant enhancement” with explanted DRG [1] (500 ng/mL, listed as INGAP); “Significant effects” in the test on explanted DRG [1] (500 ng/mL); “Significant effects” in the test with explanted DRG [1] (1000 ng/mL); “significant enhancement” with explanted DRG [1] (1000 ng/mL, listed as INGAP). Further, the “optimal dose for neurite outgrowth” value in the test with explanted DRG [1] (DRG explants) is on record as 1000 ng/mL. For the same molecule, the “neurite outgrowth in combination with 17-β-estradiol vs either drug alone” value with explanted DRG [1] was “No significant enhancement”; in the test on explanted DRG [1] (listed as INGAP), “not significantly different”. The figures for the “neurite outgrowth in combination with NGF vs INGAP peptide alone” value in the test with explanted DRG [1] and with explanted DRG [1] (listed as INGAP) were “enhances neurite outgrowth” and “Enhanced effects on neurite outgrowth”, respectively. Also, the “neurite outgrowth relative to non-treated cultures” value with explanted DRG [1] is recorded as “strong neurite outgrowth; also recorded: stimulates neurite outgrowth from the DRG explants, to an extent similar to that of the prototypical growth factor”; in the test on explanted DRG [1] (listed as INGAP), “stimulates neurite outgrowth to an extent similar to that of NGF”. In addition, the “INGAP peptide-stimulated neurite outgrowth after preincubation with anti-NGF antibody” value is given as “marked reduction” in the test on explanted DRG [1] and “strong reduction” in the test on explanted DRG [1] (listed as INGAP). Besides, the “neurite-promoting effect compared with nerve growth factor (NGF)” value in test [4] is given as “comparable”. Besides, the neurite-promoting effect result in test [4] (FIG. 1) was “effective, in a dose-dependent fashion, as a neurite-promoting agent”. For the same molecule, the “MTT reduction (cell viability)” value with DRG explant cultures (doses 100 ng/mL to 1,500 ng/mL, MTT 7 days after addition of drugs) is reported as “tremendous increase in MTT reduction”. Besides, the “dose of maximal effect on MTT reduction” value in the test with DRG explant cultures (no significant change with 1000 or 1,500 ng/mL) is reported as 500 ng/mL. Moreover, the “mitochondrial activity (MTT reduction) vs non-treated controls” value with explanted DRG [5] (1000 ng/mL, 4 days in culture) is “significant increase in mitochondrial activity”; in the test on explanted DRG [5] (1000 ng/mL, 4 days in culture, listed as INGAP) it was “significantly larger MTT reduction”; in the test with explanted DRG [5] (100, 500, 1000 ng/mL, 24 h in culture), “no significant effects”; with explanted DRG [5] (100, 500, 1000 ng/mL, 24 h in culture, listed as INGAP), “no significant effect”; with explanted DRG [5] (500 and 1000 ng/mL, 7 days in culture, P>0.05), “trend toward enhanced cell viability”.
For the molecule “NGF: conventional neurotrophic agent, nerve growth factor [reference compound]”, the “neurite outgrowth relative to non-treated cultures” value in the test on explanted DRG [1] was “strong neurite outgrowth”.
